Like-named read-outs stand apart in the source and are kept apart here. Where no end group is shown, it is not given here.
Tests used:
ACE2 [1] = settings: reduces the affinity between spiny proteins and ACE2; cited from earlier work
ACE2 [2] = settings: compared with KKCH-ACE2 affinity; cited from earlier work
[3] = test system: virus S1 protein and the ACE2 receptor; settings: cited from earlier work
Vero cells = settings: for survival rate of Vero cells: 2 h
HEK293T cells = settings: for survival rate of HEK293T cells: 2 h
SARS-CoV-2 live virus = settings: 2 h
ACE2 protein = biological target: T1, ACE2 protein (Homo sapiens, UniProt Q9BYF1); experiment: SPR affinity for ACE2 (Biacore T200, CM5 chip); settings: ACE2 on CM5 chip, 1:1 Langmuir binding model, read-out: association (Ka)
T1 construct: purchased CUSABIO (Wuhan, China) CSB-MP866317HU
Experimental: The ACE2 protein (no. CSB-MP866317HU) was a recombinant human protein purchased from CUSABIO (Wuhan, China). […] The ACE2 protein was diluted to 50 μg/mL with sodium acetate at pH 4.0. The protein was fixed on the CM5 chip at a flow rate of 10 μL/min, and the coupling time was 420 s. […] Biacore T200 Control software (v.2.0) was used to collect sample data, and the 1:1 Langmuir binding model was fitted globally to determine the final KD. The binding affinity KD could be calculated from dissociation (Kd)/association (Ka).

S1-RBD/ACE2 = biological target: T2, S1-RBD/ACE2 (Homo sapiens, UniProt Q9BYF1); experiment: ELISA inhibition of S1-RBD binding to ACE2 (RayBio COVID-19 Spike ACE2 binding assay kit II); parameters: species or system SARS-CoV-2 (S1-RBD); settings: 2 h, room temperature, 450 nm, repeated twice in each group, read-out: inhibitory rate on S1-RBD/ACE2
T2 construct: purchased RayBio (RayBiotech)
Experimental: The RayBio COVID-19 Spike ACE2 binding assay kit II (no. QHD43416) was used to detect the inhibitory effect of the KKCH peptides on the binding of the RBD protein and the ACE2 receptor protein. Using a PBS solution, KKCH was diluted to 10 μM, 90 μM, 180 μM, 360 μM, 720 μM, and 1440 μM. Then, 125 μL of test reagent was obtained by mixing different concentrations of the 10 μL KKCH peptide solutions with Fc-labeled recombinant S1-RBD protein solution. Next, 100 μL of test reagent was added to each well of a 96-well plate coated with the recombinant ACE2 protein, repeated twice in each group, and incubated at room temperature for 2 h. The plates were washed four times with a wash buffer to remove unbound S1-RBD proteins. Then, 100 μL of enzyme-labeled Anti-IgG was added to each well and incubated for 1 h, 100 μL of TMB was added at room temperature and incubated for 0.5 h, and 50 μL […] the reaction. The yellow intensity was measured at 450 nm, and the inhibition rate of the KKCH peptide was calculated.

HEK293T = settings: 394.10 μM; cited from earlier work

T2 sequence (Q9BYF1 18-740): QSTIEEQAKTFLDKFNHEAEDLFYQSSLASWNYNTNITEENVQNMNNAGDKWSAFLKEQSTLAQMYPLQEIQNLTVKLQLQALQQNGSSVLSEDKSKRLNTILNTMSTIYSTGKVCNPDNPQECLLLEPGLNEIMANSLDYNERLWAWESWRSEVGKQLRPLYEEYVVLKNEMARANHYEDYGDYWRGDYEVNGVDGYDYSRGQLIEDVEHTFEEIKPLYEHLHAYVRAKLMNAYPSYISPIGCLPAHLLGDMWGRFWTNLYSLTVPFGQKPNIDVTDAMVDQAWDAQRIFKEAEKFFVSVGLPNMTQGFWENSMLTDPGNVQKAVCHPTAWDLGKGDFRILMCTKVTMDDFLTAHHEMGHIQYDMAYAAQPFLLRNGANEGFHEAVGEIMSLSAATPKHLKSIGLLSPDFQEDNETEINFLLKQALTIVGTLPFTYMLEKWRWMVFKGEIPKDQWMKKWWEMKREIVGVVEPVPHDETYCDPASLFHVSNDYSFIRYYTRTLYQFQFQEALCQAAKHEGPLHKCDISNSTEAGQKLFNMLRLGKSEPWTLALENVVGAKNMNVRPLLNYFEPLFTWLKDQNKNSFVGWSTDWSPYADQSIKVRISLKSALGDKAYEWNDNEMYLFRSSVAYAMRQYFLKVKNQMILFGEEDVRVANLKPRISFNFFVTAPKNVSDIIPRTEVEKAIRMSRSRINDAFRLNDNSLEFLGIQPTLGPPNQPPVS
T1 sequence (Q9BYF1 18-805): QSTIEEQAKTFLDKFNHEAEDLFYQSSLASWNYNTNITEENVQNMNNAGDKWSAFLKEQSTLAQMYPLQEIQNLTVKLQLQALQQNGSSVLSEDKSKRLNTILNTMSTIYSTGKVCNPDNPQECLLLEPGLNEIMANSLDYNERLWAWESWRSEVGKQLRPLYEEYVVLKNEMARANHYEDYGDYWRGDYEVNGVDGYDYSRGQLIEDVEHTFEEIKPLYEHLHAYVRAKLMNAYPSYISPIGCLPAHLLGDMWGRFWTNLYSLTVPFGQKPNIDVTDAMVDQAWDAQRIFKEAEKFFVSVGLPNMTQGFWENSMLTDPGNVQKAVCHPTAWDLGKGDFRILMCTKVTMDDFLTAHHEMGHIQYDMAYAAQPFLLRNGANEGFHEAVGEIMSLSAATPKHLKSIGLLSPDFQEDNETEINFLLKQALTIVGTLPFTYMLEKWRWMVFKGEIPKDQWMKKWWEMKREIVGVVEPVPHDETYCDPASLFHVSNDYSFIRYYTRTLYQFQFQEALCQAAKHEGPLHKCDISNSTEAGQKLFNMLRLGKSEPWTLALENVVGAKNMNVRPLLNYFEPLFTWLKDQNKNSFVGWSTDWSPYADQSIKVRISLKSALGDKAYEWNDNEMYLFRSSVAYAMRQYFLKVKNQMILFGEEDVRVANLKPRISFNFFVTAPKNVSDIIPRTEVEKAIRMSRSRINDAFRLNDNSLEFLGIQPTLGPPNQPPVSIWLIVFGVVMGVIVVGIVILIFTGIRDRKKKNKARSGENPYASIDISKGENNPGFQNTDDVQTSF

CCN(CC)CCCC(C)Nc1ccnc2cc(Cl)ccc12 (stereo not shown) [chloroquine]
effect on ACE2 (ACE2 [1]): can prevent the glycosylation of ACE2

C[C@@]1(C(=O)O)CC[C@]2(C)CC[C@]3(C)C4=CC(=O)c5c(cc(O)c(O)c5C=O)[C@]4(C)CC[C@@]3(C)[C@@H]2C1 [demethylzeylasteral]
Kd (ACE2 [2]): 1.74 µM

C[C@@H]1C[C@H]2[C@@H]3CCC4=CC(=O)C=C[C@]4(C)[C@@]3(F)[C@@H](O)C[C@]2(C)[C@@]1(O)C(=O)CO [dexamethasone]
Kd (ACE2 [2]): 9.03 µM

O=c1c(-c2ccc(O)cc2)coc2c([C@@H]3O[C@H](CO)[C@@H](O)[C@H](O)[C@H]3O)c(O)ccc12 [puerarin]
reduction of RU values of S1 protein and ACE2 [3]: 20 units
Kd (ACE2 [2]): 670 µM

KKCHFWPFPW [KKCH]
toxicity to Vero cells (significance) (Vero cells; 40 to 400 µM, p > 0.05 vs control): not toxic to the cells in this range
survival rate of Vero cells (Vero cells; 40 μM): 97.81%
survival rate of Vero cells (Vero cells; 80 μM): 96.97%
survival rate of Vero cells (Vero cells; 160 μM): 98.23%
survival rate of Vero cells (Vero cells; 240 μM): 96.21%
survival rate of Vero cells (Vero cells; 320 μM): 95.85%
survival rate of Vero cells (Vero cells; 400 μM): 92.64%
survival rate of Vero cells (Vero cells; 480 μM): 90.44%
survival rate of HEK293T cells (HEK293T cells; 40 μM): 98.28%
survival rate of HEK293T cells (HEK293T cells; 80 μM): 95.28%
survival rate of HEK293T cells (HEK293T cells; 160 μM): 94.74%
survival rate of HEK293T cells (HEK293T cells; 240 μM): 92.39%
survival rate of HEK293T cells (HEK293T cells; 320 μM): 90.77%
survival rate of HEK293T cells (HEK293T cells; 400 μM): 92.69%
survival rate of HEK293T cells (HEK293T cells; 480 μM): 81.66%
effect on HEK293T cell viability (significance) (HEK293T cells; less than 480 μM, p > 0.05): no significant effect on cell viability
inhibitory rate against SARS-CoV-2 (SARS-CoV-2 live virus; 10 μM): 4.97%
inhibitory rate against SARS-CoV-2 (SARS-CoV-2 live virus; 25 μM): 11.32%
inhibitory rate against SARS-CoV-2 (SARS-CoV-2 live virus; 50 μM): 15.40%
inhibitory rate against SARS-CoV-2 (SARS-CoV-2 live virus; 100 μM): 17.91%
inhibitory rate against SARS-CoV-2 (SARS-CoV-2 live virus; 150 μM): 22.41%
inhibitory rate against SARS-CoV-2 (SARS-CoV-2 live virus; 200 μM): 32.01%
inhibitory rate against SARS-CoV-2 (SARS-CoV-2 live virus; 350 μM): 38.31%
inhibitory rate against SARS-CoV-2 (SARS-CoV-2 live virus; 450 μM): 54.80%
kon (ACE2 protein): 154000 ± 1.5e+09 M⁻¹ s⁻¹
inhibition at 10 µM (S1-RBD/ACE2; 10 μM): 6.8%
inhibition at 90 µM (S1-RBD/ACE2; 90 μM): 10.9%
inhibition at 180 µM (S1-RBD/ACE2; 180 μM): 17%
inhibition at 360 µM (S1-RBD/ACE2; 360 μM): 34%
inhibition at 720 µM (S1-RBD/ACE2; 720 μM): 89.7%
inhibition at 1440 µM (S1-RBD/ACE2; 1440 μM): 94.1%
viability rate of BEAS-2B cells (BEAS-2B cells; 40 µM): 99.80%
viability rate of BEAS-2B cells (BEAS-2B cells; 80 µM): 99.77%
viability rate of BEAS-2B cells (BEAS-2B cells; 160 µM): 99.37%
viability rate of BEAS-2B cells (BEAS-2B cells; 240 µM): 99.63%
viability rate of BEAS-2B cells (BEAS-2B cells; 320 µM): 98.07%
viability rate of BEAS-2B cells (BEAS-2B cells; 400 µM): 95.87%
viability rate of BEAS-2B cells (BEAS-2B cells; 480 µM): 82.95%
effect on BEAS-2B cell viability (significance) (BEAS-2B cells; less than 480 μM, p > 0.05): no significant effect on cell viability

thanatin: peptide (thanatin) derived from insects
cytotoxicity to HEK293T (HEK293T): no obvious cytotoxicity

tuftsin
Kd (ACE2 [2]): 460 µM
